Measurements published in patent publication US11459323B2, “Monocyclic β-lactam compound for treating bacterial infection” (MEDSHINE DISCOVERY INC., priority 2018, dated 2022).
Converted amounts (≈) assume the structure as drawn. Where two headings read alike, the source gives them in different places.

Columns and labels:
Test in all cases: MIC on clinically isolated bacteria
Assay type in all cases: cell-based
[1] = test system: Acinetobacter baumannii C357; details: Acinetobacter baumannii C357; read-out: Minimum Inhibitory Concentration (MIC)
Source text: (§1) Twenty-five strains of clinically isolated Acinetobacter baumannii and twenty-seven strains of Pseudomonas aeruginosa were respectively selected and used to determine the minimum inhibitory concentration (MIC) of the compounds by micro-liquid dilution method according to the Institute of Clinical and Laboratory Standard (CLSI) requirements.

[2] = test system: Pseudomonas aeruginosa W23; details: read-out: MIC
Source text: as §1

[3] = test system: Pseudomonas aeruginosa C762
Source text: as §1

[4] = test system: Pseudomonas aeruginosa W13; details: read-out: MIC
Source text: as §1

[5] = test system: Acinetobacter baumannii C281; details: Acinetobacter baumannii C281; read-out: Minimum Inhibitory Concentration (MIC)
Source text: as §1

[6] = test system: Acinetobacter baumannii C241; details: Acinetobacter baumannii C241; read-out: Minimum Inhibitory Concentration (MIC)
Source text: as §1

[7] = test system: Acinetobacter baumannii C333; details: Acinetobacter baumannii C333; read-out: Minimum Inhibitory Concentration (MIC)
Source text: as §1

[8] = test system: Acinetobacter baumannii C279; details: Acinetobacter baumannii C279; read-out: Minimum Inhibitory Concentration (MIC)
Source text: as §1

[9] = test system: Pseudomonas aeruginosa W27; details: read-out: MIC
Source text: as §1

[10] = test system: Pseudomonas aeruginosa W9; details: read-out: MIC
Source text: as §1

[11] = test system: Pseudomonas aeruginosa M4; details: read-out: MIC
Source text: as §1

[12] = test system: Pseudomonas aeruginosa W1; details: read-out: MIC
Source text: as §1

[13] = test system: Acinetobacter baumannii C328; details: Acinetobacter baumannii C328; read-out: Minimum Inhibitory Concentration (MIC)
Source text: as §1

[14] = test system: Pseudomonas aeruginosa W29; details: read-out: MIC
Source text: as §1

[15] = test system: Pseudomonas aeruginosa C755; details: read-out: MIC
Source text: as §1

[16] = test system: Acinetobacter baumannii C402; details: Acinetobacter baumannii C402; read-out: Minimum Inhibitory Concentration (MIC)
Source text: as §1

[17] = test system: Acinetobacter baumannii C181; details: Acinetobacter baumannii C181; read-out: Minimum Inhibitory Concentration (MIC)
Source text: as §1

[18] = test system: Acinetobacter baumannii C283; details: Acinetobacter baumannii C283; read-out: Minimum Inhibitory Concentration (MIC)
Source text: as §1

[19] = test system: Pseudomonas aeruginosa C763; details: read-out: MIC
Source text: as §1

[20] = test system: Acinetobacter baumannii C394; details: Acinetobacter baumannii C394; read-out: Minimum Inhibitory Concentration (MIC)
Source text: as §1

[21] = test system: Acinetobacter baumannii C330; details: Acinetobacter baumannii C330; read-out: Minimum Inhibitory Concentration (MIC)
Source text: as §1

[22] = test system: Acinetobacter baumannii C408; details: Acinetobacter baumannii C408; read-out: Minimum Inhibitory Concentration (MIC)
Source text: as §1

[23] = test system: Acinetobacter baumannii C403; details: Acinetobacter baumannii C403; read-out: Minimum Inhibitory Concentration (MIC)
Source text: as §1

[24] = test system: Acinetobacter baumannii C312; details: Acinetobacter baumannii C312; read-out: Minimum Inhibitory Concentration (MIC)
Source text: as §1

[25] = test system: Pseudomonas aeruginosa W6; details: read-out: MIC
Source text: as §1

[26] = test system: Acinetobacter baumannii C361; details: Acinetobacter baumannii C361; read-out: Minimum Inhibitory Concentration (MIC)
Source text: as §1

Aeruginosa ATCC27853 = details: Pseudomonas aeruginosa; Aeruginosa ATCC27853; read-out: MIC
Source text: as §1

[27] = test system: Acinetobacter baumannii C390; details: Acinetobacter baumannii C390; read-out: Minimum Inhibitory Concentration (MIC)
Source text: as §1

[28] = test system: Acinetobacter baumannii C313; details: Acinetobacter baumannii C313; read-out: Minimum Inhibitory Concentration (MIC)
Source text: as §1

[29] = test system: Pseudomonas aeruginosa W35; details: read-out: MIC
Source text: as §1

[30] = test system: Acinetobacter baumannii C315; details: Acinetobacter baumannii C315; read-out: Minimum Inhibitory Concentration (MIC)
Source text: as §1

[31] = test system: Pseudomonas aeruginosa C745; details: read-out: MIC
Source text: as §1

[32] = test system: Pseudomonas aeruginosa W4; details: read-out: MIC
Source text: as §1

[33] = test system: Pseudomonas aeruginosa M1; details: read-out: MIC
Source text: as §1

[34] = test system: Pseudomonas aeruginosa W20; details: read-out: MIC
Source text: as §1

[35] = test system: Pseudomonas aeruginosa C754; details: read-out: MIC
Source text: as §1

[36] = test system: Pseudomonas aeruginosa W24; details: read-out: MIC
Source text: as §1

[37] = test system: Acinetobacter baumannii C427; details: Acinetobacter baumannii C427; read-out: Minimum Inhibitory Concentration (MIC)
Source text: as §1

[38] = test system: Pseudomonas aeruginosa W42; details: read-out: MIC
Source text: as §1

[39] = test system: Acinetobacter baumannii C395; details: Acinetobacter baumannii C395; read-out: Minimum Inhibitory Concentration (MIC)
Source text: as §1

| SMILES | MIC [1] [µg/mL] | MIC [2] [µg/mL] | MIC [4] [µg/mL] | MIC [5] [µg/mL] | MIC [6] [µg/mL] | MIC [7] [µg/mL] | MIC [8] [µg/mL] | MIC [9] [µg/mL] | MIC [10] [µg/mL] | MIC [11] [µg/mL] | MIC [12] [µg/mL] | MIC [13] [µg/mL] | MIC [14] [µg/mL] | MIC [15] [µg/mL] | MIC [16] [µg/mL] | MIC [17] [µg/mL] | MIC [18] [µg/mL] | MIC [19] [µg/mL] | MIC [20] [µg/mL] | MIC [21] [µg/mL] | other results |
| --- | --- | --- | --- | --- | --- | --- | --- | --- | --- | --- | --- | --- | --- | --- | --- | --- | --- | --- | --- | --- | --- |
| C[C@H]1[C@H](NC(=O)/C(=N\OC(C)(C)C(=O)O)c2csc(N)n2)C(=O)N1S(=O)(=O)O [Aztreonam, reference compound] | 32 (≈ 73.5 µM) | 16 (≈ 36.7 µM) | 16 (≈ 36.7 µM) | 64 (≈ 147 µM) | 128 (≈ 294 µM) | 64 (≈ 147 µM) | 64 (≈ 147 µM) | 32 (≈ 73.5 µM) | 32 (≈ 73.5 µM) | < 0.25 | 32 (≈ 73.5 µM) | 64 (≈ 147 µM) | 32 (≈ 73.5 µM) | 4 (≈ 9.19 µM) | 32 (≈ 73.5 µM) | 64 (≈ 147 µM) | 64 (≈ 147 µM) | 32 (≈ 73.5 µM) | 64 (≈ 147 µM) | 64 (≈ 147 µM) | MIC [3]: 128 µg/mL (≈ 294 µM); MIC [22]: 32 µg/mL (≈ 73.5 µM); MIC [23]: 64 µg/mL (≈ 147 µM); MIC [24]: 64 µg/mL (≈ 147 µM); MIC [25]: 32 µg/mL (≈ 73.5 µM); MIC [26]: 32 µg/mL (≈ 73.5 µM); MIC (Aeruginosa ATCC27853): 2 µg/mL (≈ 4.59 µM); MIC [27]: 64 µg/mL (≈ 147 µM); MIC [28]: 64 µg/mL (≈ 147 µM); MIC [29]: 2 µg/mL (≈ 4.59 µM); MIC [30]: 64 µg/mL (≈ 147 µM); MIC [31]: 32 µg/mL (≈ 73.5 µM); MIC [32]: 4 µg/mL (≈ 9.19 µM); MIC [33]: 8 µg/mL (≈ 18.4 µM); MIC [34]: 32 µg/mL (≈ 73.5 µM); MIC [35]: 4 µg/mL (≈ 9.19 µM); MIC [36]: 32 µg/mL (≈ 73.5 µM); MIC [37]: 64 µg/mL (≈ 147 µM); MIC [38]: 16 µg/mL (≈ 36.7 µM); MIC [39]: 32 µg/mL (≈ 73.5 µM) |
| CC1(C)[C@H](NC(=O)/C(=N\O[C@@H](COc2ccc3c(c2)CN(C(=N)NCCCCN)C3)C(=O)O)c2csc(N)n2)C(=O)N1OS(=O)(=O)O [Compound 36] | 2 (≈ 2.87 µM) | 0.25 (≈ 0.358 µM) | 0.25 (≈ 0.358 µM) | 2 (≈ 2.87 µM) | 2 (≈ 2.87 µM) | 2 (≈ 2.87 µM) | 2 (≈ 2.87 µM) | 0.5 (≈ 0.717 µM) | 0.5 (≈ 0.717 µM) | 1 (≈ 1.43 µM) | 0.5 (≈ 0.717 µM) | 2 (≈ 2.87 µM) | 0.5 (≈ 0.717 µM) | 0.25 (≈ 0.358 µM) | 2 (≈ 2.87 µM) | 2 (≈ 2.87 µM) | 2 (≈ 2.87 µM) | 4 (≈ 5.73 µM) | 2 (≈ 2.87 µM) | 2 (≈ 2.87 µM) | MIC ([3]; read-out: MIC): 8 µg/mL (≈ 11.5 µM); MIC [22]: 2 µg/mL (≈ 2.87 µM); MIC [23]: 2 µg/mL (≈ 2.87 µM); MIC [24]: 2 µg/mL (≈ 2.87 µM); MIC [25]: 0.5 µg/mL (≈ 0.717 µM); MIC [26]: 2 µg/mL (≈ 2.87 µM); MIC (Aeruginosa ATCC27853): 0.25 µg/mL (≈ 0.358 µM); MIC [27]: 2 µg/mL (≈ 2.87 µM); MIC [28]: 2 µg/mL (≈ 2.87 µM); MIC [29]: 0.125 µg/mL (≈ 0.179 µM); MIC [30]: 2 µg/mL (≈ 2.87 µM); MIC [31]: 8 µg/mL (≈ 11.5 µM); MIC [32]: 1 µg/mL (≈ 1.43 µM); MIC [33]: 0.5 µg/mL (≈ 0.717 µM); MIC [34]: 0.5 µg/mL (≈ 0.717 µM); MIC [35]: 0.25 µg/mL (≈ 0.358 µM); MIC [36]: 0.5 µg/mL (≈ 0.717 µM); MIC [37]: 2 µg/mL (≈ 2.87 µM); MIC [38]: 0.25 µg/mL (≈ 0.358 µM); MIC [39]: 2 µg/mL (≈ 2.87 µM) |
